# Experimental data as given in patent US9808469B2, “Antitumor activity of multi-kinase inhibitors in triple negative breast cancer” (ENTRECHEM, S.L, priority 2014, dated 2017).
# Key:
# Assay type in all cases: cell-based
# MDA-MB-231 cells = assay: MTT metabolization, inhibition of MDA-MB-231 cell proliferation
# Protocol: (§1) These triple negative breast cancer cell lines were obtained from the American Type Culture Collection Cell Biology Collection (ATCC) (Manassas, Va.). The medium was changed every 2 days.
# (§2) Cell proliferation and growth experiments were carried out using 3-(4,5-dimethylthiazol-2-yl)-2,5-diphenyltetrazolium bromide (MTT) uptake assays, where MTT is reduced to purple formazan by the mitochondria of living cells. Increase in cell number is detected by augmented MTT metabolization, and decrease in cell number is reflected by a decrease. […] The cells were treated with the drug at different concentrations to plot the dose-response curves in all cancer cell lines using in the study. […] After treatment, each well was replaced with 250 μL of fresh medium containing MTT ([…]) and incubated for 1 hour. The medium was then removed and 500 μL of dimethyl sulfoxide was added to each well. The plate was agitated in the dark for 5 minutes to dissolve the MTT-formazan crystals. The absorbance of the samples was recorded at 562 nm in a multi-well plate reader (BMG labtech). Results were plotted as the mean values of quadruplicates from a representative experiment that was repeated at least two independent times.
# (§3) Combination index values less than 1 indicate synergism, values equal to 1 indicate an additive effect, whereas values greater than 1 indicate antagonism. Combination index values from three independent experiments were generated.
# BT-549 cells = assay: MTT metabolization, inhibition of BT-549 cell proliferation
# Protocol: as §1, §2, §3
# HS578T cells = assay: MTT metabolization, inhibition of HS578T cell proliferation
# Protocol: as §1, §2, §3
compound,measurement,setting,value
"N.N.O=C([O-])C1(C(=O)[O-])CCC1.[Pt+2] [Carboplatin, carboplatin, reference compound]",Percentage inhibition Carboplatin mean,MDA-MB-231 cells; Carboplatin 80 nM alone,74.70%
same,Percentage inhibition Carboplatin mean,MDA-MB-231 cells; Carboplatin 120 nM alone,62.30%
same,Percentage inhibition Carboplatin mean,MDA-MB-231 cells; Carboplatin 160 nM alone,61.11%
same,Percentage inhibition Carboplatin mean,MDA-MB-231 cells; Carboplatin 200 nM alone,58.21%
same,Percentage inhibition Carboplatin mean,BT-549 cells; Carboplatin 80 nM alone,37.09%
same,Percentage inhibition Carboplatin mean,BT-549 cells; Carboplatin 120 nM alone,21.43%
same,Percentage inhibition Carboplatin mean,BT-549 cells; Carboplatin 160 nM alone,19.39%
same,Percentage inhibition Carboplatin mean,BT-549 cells; Carboplatin 200 nM alone,15.69%
same,Percentage inhibition Carboplatin mean,HS578T cells; Carboplatin 80 nM alone,70.90%
same,Percentage inhibition Carboplatin mean,HS578T cells; Carboplatin 120 nM alone,60.26%
same,Percentage inhibition Carboplatin mean,HS578T cells; Carboplatin 160 nM alone,50.49%
same,Percentage inhibition Carboplatin mean,HS578T cells; Carboplatin 200 nM alone,24.33%
"CC(=O)O[C@@]12CO[C@@H]1C[C@H](O)[C@@]1(C)C(=O)[C@H](O)C3=C(C)[C@@H](OC(=O)[C@H](O)[C@@H](NC(=O)OC(C)(C)C)c4ccccc4)C[C@@](O)([C@@H](OC(=O)c4ccccc4)[C@H]21)C3(C)C [Docetaxel, docetaxel, reference compound]",viability at 0.0004 µM,"MDA-MB-231 cells; Homo sapiens, MDA-MB-231, Docetaxel 0.4 nM alone, read-out: Percentage inhibition Docetaxel mean",59.3%
same,viability at 0.0008 µM,"MDA-MB-231 cells; Homo sapiens, MDA-MB-231, Docetaxel 0.8 nM alone, read-out: Percentage inhibition Docetaxel mean",33.8%
same,viability at 0.0012 µM,"MDA-MB-231 cells; Homo sapiens, MDA-MB-231, Docetaxel 1.2 nM alone, read-out: Percentage inhibition Docetaxel mean",25.3%
same,viability at 0.0016 µM,"MDA-MB-231 cells; Homo sapiens, MDA-MB-231, Docetaxel 1.6 nM alone, read-out: Percentage inhibition Docetaxel mean",25.3%
same,inhibition at 0.0004 µM,"BT-549 cells; Homo sapiens, BT-549, Docetaxel 0.4 nM alone, read-out: Percentage inhibition Docetaxel mean",82%
same,inhibition at 0.0008 µM,"BT-549 cells; Homo sapiens, BT-549, Docetaxel 0.8 nM alone, read-out: Percentage inhibition Docetaxel mean",36.1%
same,inhibition at 0.0012 µM,"BT-549 cells; Homo sapiens, BT-549, Docetaxel 1.2 nM alone, read-out: Percentage inhibition Docetaxel mean",36.5%
same,inhibition at 0.0016 µM,"BT-549 cells; Homo sapiens, BT-549, Docetaxel 1.6 nM alone, read-out: Percentage inhibition Docetaxel mean",36.1%
same,percent inhibition of cell proliferation at 0.0004 µM,"HS578T cells; Homo sapiens, Hs-578T, Docetaxel 0.4 nM alone, read-out: Percentage inhibition Docetaxel mean",73%
same,percent inhibition of cell proliferation at 0.0008 µM,"HS578T cells; Homo sapiens, Hs-578T, Docetaxel 0.8 nM alone, read-out: Percentage inhibition Docetaxel mean",49.6%
same,percent inhibition of cell proliferation at 0.0012 µM,"HS578T cells; Homo sapiens, Hs-578T, Docetaxel 1.2 nM alone, read-out: Percentage inhibition Docetaxel mean",45.8%
same,percent inhibition of cell proliferation at 0.0016 µM,"HS578T cells; Homo sapiens, Hs-578T, Docetaxel 1.6 nM alone, read-out: Percentage inhibition Docetaxel mean",47.9%
